Results as given in patent publication US20210069295A1, “GALECTINS CONTROL MTOR IN RESPONSE TO ENDOMEMBRANE DAMAGE AND PROVIDE A MECHANISM AND TARGET FOR THE TREATMENT OF AUTOPHAGY-RELATED DISEASES” (STC. UNM, priority 2017, published 2021).
Peptide text beside a SMILES is read from it.

Legend:
AMPK = AMPK activation by immunoblotting of phosphorylated AMPKα, ACC and ULK1 in HEK293A cells; assay type: cell-based
Ragulator-Rag complex = assay: Co-immunoprecipitation of Ragulator, Rag GTPases and mTOR/Raptor in HEK293T cells; assay type: cell-based; conditions: 100 μM GPN 1 h
Protocol: (A) Analysis of mTOR activity in TSC2-deleted (TSC2−/−) and wildtype (TSC2WT) HeLa cells treated with 100 μM GPN in full medium (Full) or starved in EBSS for 1 h. mTOR activity was monitored by immunoblotting analysis of S6K1 (T389) phosphorylation (phosphorylated S6K (p-T389) relative to total S6K). Ctrl, control (untreated cells). (B) Co-immunoprecipitation analysis of changes in interactions between Ragulator and Rag GTPases following treatment with GPN. HEK293T cells stably expressing FLAG-metap2 (control) or FLAG-p14 were treated with 100 μM GPN in full medium for 1 h. Cell lysates were immunoprecipitated (IP) with anti-FLAG antibody and immunoblotted for endogenous RagA or RagC. […] (D) Analysis of mTOR activity in HEK293T cells or HEK293T cells stably expressing constitutively active RagB GTPase (RagBQ99L) treated with 100 μM GPN in full medium or starved in EBSS for 1 h. mTOR activity was monitored as in A. Data, means±SEM, (n=3), † not significant, **p<0.01, ANOVA. […] (F) Quantification by HC of overlaps between mTOR and LAMP2 (representative images shown in FIG. S2C) in HEK293T cells and HEK293T cells stably expressing constitutively active RagB GTPase (RagBQ99L) treated with 100 μM GPN in full medium for 1 h. Data, means±SEM, n≥3 independent experiments (500 primary objects counted per well; ≥5 wells/sample per each experiment); † p≥0.05, *p<0.05, ANOVA. […]

NCC(=O)N[C@@H](Cc1ccccc1)C(=O)Nc1ccc2ccccc2c1 [GPN, glycyl-L-phenylalanine 2-naphththylamide] (HELM PEPTIDE1{G.F.[c1ccc2cc(N[*:1])ccc2c1]}$$$$V2.0)
ULK1 pS317 (activating AMPK phosphosite) (AMPK; 100 μM GPN): increase
ULK1 pS757 (mTOR-dependent inactivating phosphosite) (AMPK; 100 μM GPN): decreased
phosphorylation of S79 of acetyl-CoA carboxylase (ACC) (AMPK; 100 μM GPN): elevated phosphorylation
AMPK activation (AMPKα T172 phosphorylation) (AMPK; HEK293A, 100 μM GPN in full medium): activated
interactions between Ragulator (p14 and p18) and RagA/RagC in co-IPs (Ragulator-Rag complex): enhanced interactions
mTOR and Raptor levels in complexes with RagB or RagA (Ragulator-Rag complex): diminished mTOR and Raptor levels
